Results: article PMC3344384 (Chemistry & biology, 2011)

Legend:
UCH-L1 = molecular target: T1, UCH-L1 (Homo sapiens, UniProt P09936); test: Ub-Rho assay, UCH-L1; format: biochemical
T1 sequence (P09936 1-223): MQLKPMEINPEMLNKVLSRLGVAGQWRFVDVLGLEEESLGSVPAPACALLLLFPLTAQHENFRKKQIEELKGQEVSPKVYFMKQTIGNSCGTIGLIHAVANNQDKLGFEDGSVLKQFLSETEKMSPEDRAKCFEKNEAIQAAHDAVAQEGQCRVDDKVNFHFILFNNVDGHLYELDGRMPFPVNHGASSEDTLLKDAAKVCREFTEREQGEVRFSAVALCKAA

UCH-L3 = molecular target: T2, UCH-L3 (Homo sapiens, UniProt P15374); test: Ub-Rho assay, UCH-L3; format: biochemical
T2 sequence (P15374 1-230): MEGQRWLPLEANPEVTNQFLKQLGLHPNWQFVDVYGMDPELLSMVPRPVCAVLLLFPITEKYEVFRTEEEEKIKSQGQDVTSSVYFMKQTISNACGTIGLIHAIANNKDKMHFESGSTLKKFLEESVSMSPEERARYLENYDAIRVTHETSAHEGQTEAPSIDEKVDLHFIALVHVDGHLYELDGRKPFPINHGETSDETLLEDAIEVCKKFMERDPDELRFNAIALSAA

SENP1 = molecular target: T3, SENP1 (Homo sapiens, UniProt Q9P0U3); test: SUMO1-AMC assay, SENP1; format: biochemical; conditions: SUMO1-AMC substrate
T3 sequence (Q9P0U3 1-644): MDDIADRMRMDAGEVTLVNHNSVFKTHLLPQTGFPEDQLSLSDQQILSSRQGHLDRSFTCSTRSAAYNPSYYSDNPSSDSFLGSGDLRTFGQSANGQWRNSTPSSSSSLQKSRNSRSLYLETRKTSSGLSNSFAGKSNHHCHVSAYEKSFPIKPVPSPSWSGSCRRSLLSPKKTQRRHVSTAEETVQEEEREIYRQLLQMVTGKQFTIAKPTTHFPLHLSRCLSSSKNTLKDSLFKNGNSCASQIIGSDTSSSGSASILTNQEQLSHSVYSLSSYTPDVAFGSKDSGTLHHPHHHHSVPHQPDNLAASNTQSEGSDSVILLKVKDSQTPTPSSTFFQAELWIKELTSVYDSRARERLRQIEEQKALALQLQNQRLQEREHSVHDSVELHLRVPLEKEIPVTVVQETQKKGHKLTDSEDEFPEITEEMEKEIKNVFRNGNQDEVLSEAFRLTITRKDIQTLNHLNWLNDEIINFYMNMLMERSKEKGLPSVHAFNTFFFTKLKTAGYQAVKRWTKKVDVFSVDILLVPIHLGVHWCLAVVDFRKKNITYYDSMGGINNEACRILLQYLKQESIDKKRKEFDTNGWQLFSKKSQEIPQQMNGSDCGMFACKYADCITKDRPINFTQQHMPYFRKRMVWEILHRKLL

caspase-6 = molecular target: T4, caspase-6 (Homo sapiens, UniProt P55212); test: cysteine protease selectivity, caspase-6; format: biochemical
T4 sequence (P55212 24-179 limits assumed): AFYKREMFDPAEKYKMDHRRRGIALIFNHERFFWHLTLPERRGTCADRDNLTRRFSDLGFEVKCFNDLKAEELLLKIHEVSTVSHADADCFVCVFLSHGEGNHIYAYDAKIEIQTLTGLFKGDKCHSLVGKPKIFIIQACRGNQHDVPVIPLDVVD
T4 sequence (P55212 194-293 limits assumed): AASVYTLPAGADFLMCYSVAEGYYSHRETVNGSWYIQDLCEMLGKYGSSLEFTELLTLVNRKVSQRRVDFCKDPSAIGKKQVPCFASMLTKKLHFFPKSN

papain = molecular target: T5, papain (Carica papaya, UniProt P00784); test: cysteine protease selectivity, papain; format: biochemical
T5 sequence (P00784 134-345): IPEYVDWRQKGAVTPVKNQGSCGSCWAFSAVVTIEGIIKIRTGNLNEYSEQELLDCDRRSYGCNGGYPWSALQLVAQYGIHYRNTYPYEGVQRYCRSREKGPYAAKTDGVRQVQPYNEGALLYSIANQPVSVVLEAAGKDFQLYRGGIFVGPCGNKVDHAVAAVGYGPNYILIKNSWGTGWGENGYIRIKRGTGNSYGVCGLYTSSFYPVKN

USP2 = molecular target: T6, USP2 (Homo sapiens, UniProt O75604); test: K63-linked diubiquitin cleavage assay, USP2; conditions: for IC50 USP2: NI = no significant inhibition at 114 μM
T6 sequence (O75604 1-605): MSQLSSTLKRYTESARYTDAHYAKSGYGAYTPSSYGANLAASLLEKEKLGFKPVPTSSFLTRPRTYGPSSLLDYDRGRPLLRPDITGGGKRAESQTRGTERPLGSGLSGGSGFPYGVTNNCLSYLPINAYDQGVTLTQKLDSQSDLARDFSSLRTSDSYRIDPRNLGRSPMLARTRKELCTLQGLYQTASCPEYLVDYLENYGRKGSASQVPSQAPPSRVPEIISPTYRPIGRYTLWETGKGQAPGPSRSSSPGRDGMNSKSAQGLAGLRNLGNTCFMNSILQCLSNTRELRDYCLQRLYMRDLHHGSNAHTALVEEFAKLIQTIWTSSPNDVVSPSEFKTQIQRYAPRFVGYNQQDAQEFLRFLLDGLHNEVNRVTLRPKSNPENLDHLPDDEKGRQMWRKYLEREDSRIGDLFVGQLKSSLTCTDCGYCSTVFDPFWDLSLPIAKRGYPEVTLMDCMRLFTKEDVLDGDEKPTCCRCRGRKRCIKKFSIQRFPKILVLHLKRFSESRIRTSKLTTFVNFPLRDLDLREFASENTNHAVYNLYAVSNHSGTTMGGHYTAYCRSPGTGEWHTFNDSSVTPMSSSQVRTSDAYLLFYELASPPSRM

[1] = K63-linked diubiquitin substrate

IC50 (UCH-L1)	IC50 (UCH-L3)	inhibition of SENP1 (SENP1)	IC50 (caspase-6)	IC50 (papain)	IC50 USP2 (USP2; [1])	Structure (SMILES)	IC50 (USP2)	IC50 for USP2, fold higher than that for USP1/UAF1 (USP2; [1])
> 500 µM	> 500 µM	low level of inhibition	> 250 µM	> 250 µM	no inhibition	OCCN1CCN(CCC=C2c3ccccc3Sc3ccc(C(F)(F)F)cc32)CC1 [Flupenthixol, flupenthixol]	–	–
> 500 µM	> 500 µM	low level of inhibition	> 250 µM	> 250 µM	No inhibition	O=c1[nH]c2ccccc2n1C1CCN(CCCC(c2ccc(F)cc2)c2ccc(F)cc2)CC1 [Pimozide, pimozide]	–	–
> 500 µM	> 500 µM	low level of inhibition	> 250 µM	~130 µM	no inhibition	CN1CCN(CCCN2c3ccccc3Sc3ccc(C(F)(F)F)cc32)CC1 [Trifluoperazine, trifluoperazine]	–	–

Structure (SMILES)	IC50 (UCH-L1)	IC50 (UCH-L3)	inhibition of SENP1 (SENP1)	IC50 (caspase-6)	IC50 (papain)	IC50 USP2 (USP2; [1])	IC50 (USP2)	IC50 for USP2, fold higher than that for USP1/UAF1 (USP2; [1])
CC(C)(Sc1ccc(CCN(CCCCC2CCCCC2)C(=O)NC2CCCCC2)cc1)C(=O)O [GW7647]	> 200 µM	> 200 µM	low level of inhibition	21 µM	~130 µM	–	> 114 µM	more than 23 fold
